# Measurements as given in the supplement of paper PMC10307832.
# What was measured:
# Experiment in all cases: relative viability (nuclei count vs DMSO), 5 days (fraction); higher = more cells survive
# [1] = system: NCI-H1734
# Procedure, shortened: (§1)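 Five library-drug doses in √10 steps were combined with a fixed anchor-drug dose, or a single drug was given alone, by pin tool to lung cancer cell lines in 1536-well plates the day after seeding. Nuclei were stained and counted after 5 days. Relative viability is the nuclei count in treated wells over that in vehicle wells, taken as the median of duplicate plates.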
# [2] = system: NCI-H647
# Procedure, shortened: as §1
# [3] = system: H3255
# Procedure, shortened: as §1
# [4] = system: NCI-H2009
# Procedure, shortened: as §1
# [5] = system: LCLC-97TM1
# Procedure, shortened: as §1
# [6] = system: NCI-H2126
# Procedure, shortened: as §1
# [7] = system: NCI-H727
# Procedure, shortened: as §1
# [8] = system: NCI-H1993
# Procedure, shortened: as §1
# [9] = system: SW 1573
# Procedure, shortened: as §1
# [10] = system: PC-14
# Procedure, shortened: as §1
# [11] = system: LXF-289
# Procedure, shortened: as §1
# [12] = system: NCI-H2347
# Procedure, shortened: as §1
# [13] = system: EMC-BAC-2
# Procedure, shortened: as §1
# [14] = system: EPLC-272H
# Procedure, shortened: as §1
# [15] = system: NCI-H661
# Procedure, shortened: as §1
# [16] = system: HOP-62
# Procedure, shortened: as §1
# [17] = system: SK-LU-1
# Procedure, shortened: as §1
# [18] = system: NCI-H322M
# Procedure, shortened: as §1
# [19] = system: NCI-H2085
# Procedure, shortened: as §1
# [20] = system: NCI-H2023
# Procedure, shortened: as §1
# [21] = system: NCI-H1915
# Procedure, shortened: as §1
smiles,measurement,setting,value
Cc1sc2c(c1C)C(c1ccc(Cl)cc1)=N[C@@H](CC(=O)OC(C)(C)C)c1nnc(C)n1-2 [JQ1] + O=C(CCCCCCC(=O)Nc1ccccc1)NO [Vorinostat] (partner 1 µM),relative viability,[1]; first compound 0.04 µM,0.802
same,relative viability,[1]; first compound 0.1265 µM,0.665
same,relative viability,[1]; first compound 0.4 µM,0.712
same,relative viability,[1]; first compound 1.265 µM,0.334
same,relative viability,[1]; first compound 4 µM,0.358
same,relative viability,[2]; first compound 0.04 µM,0.615
same,relative viability,[2]; first compound 0.1265 µM,0.373
same,relative viability,[2]; first compound 0.4 µM,0.406
same,relative viability,[2]; first compound 1.265 µM,0.0648
same,relative viability,[2]; first compound 4 µM,0.062
same,relative viability,[3]; first compound 0.04 µM,0.896
same,relative viability,[3]; first compound 0.4 µM,1.01
same,relative viability,[3]; first compound 1.265 µM,0.526
same,relative viability,[3]; first compound 4 µM,0.428
same,relative viability,[4]; first compound 0.04 µM,0.701
same,relative viability,[4]; first compound 0.1265 µM,0.444
same,relative viability,[4]; first compound 0.4 µM,0.429
same,relative viability,[4]; first compound 1.265 µM,0.264
same,relative viability,[4]; first compound 4 µM,0.201
same,relative viability,[5]; first compound 0.04 µM,0.603
same,relative viability,[5]; first compound 0.1265 µM,0.532
same,relative viability,[5]; first compound 0.4 µM,0.25
same,relative viability,[5]; first compound 1.265 µM,0.121
same,relative viability,[5]; first compound 4 µM,0.0762
same,relative viability,[6]; first compound 0.04 µM,0.725
same,relative viability,[6]; first compound 0.1265 µM,0.767
same,relative viability,[6]; first compound 0.4 µM,0.583
same,relative viability,[6]; first compound 1.265 µM,0.382
same,relative viability,[6]; first compound 4 µM,0.346
same,relative viability,[7]; first compound 0.04 µM,1.47
same,relative viability,[7]; first compound 0.1265 µM,1.14
same,relative viability,[7]; first compound 0.4 µM,0.954
same,relative viability,[7]; first compound 1.265 µM,1.08
same,relative viability,[7]; first compound 4 µM,0.621
same,relative viability,[8]; first compound 0.04 µM,0.851
same,relative viability,[8]; first compound 0.1265 µM,0.785
same,relative viability,[8]; first compound 0.4 µM,0.613
same,relative viability,[8]; first compound 1.265 µM,0.388
same,relative viability,[8]; first compound 4 µM,0.362
same,relative viability,[9]; first compound 0.04 µM,0.695
same,relative viability,[9]; first compound 0.1265 µM,0.365
same,relative viability,[9]; first compound 0.4 µM,0.338
same,relative viability,[9]; first compound 1.265 µM,0.231
same,relative viability,[9]; first compound 4 µM,0.238
same,relative viability,[10]; first compound 0.04 µM,0.787
same,relative viability,[10]; first compound 0.1265 µM,0.564
same,relative viability,[10]; first compound 0.4 µM,0.44
same,relative viability,[10]; first compound 1.265 µM,0.203
same,relative viability,[10]; first compound 4 µM,0.16
same,relative viability,[11]; first compound 0.04 µM,0.765
same,relative viability,[11]; first compound 0.1265 µM,0.693
same,relative viability,[11]; first compound 0.4 µM,0.665
same,relative viability,[11]; first compound 1.265 µM,0.582
same,relative viability,[11]; first compound 4 µM,0.577
same,relative viability,[12]; first compound 0.04 µM,0.615
same,relative viability,[12]; first compound 0.1265 µM,0.521
same,relative viability,[12]; first compound 0.4 µM,0.463
same,relative viability,[12]; first compound 1.265 µM,0.282
same,relative viability,[12]; first compound 4 µM,0.259
same,relative viability,[13]; first compound 0.04 µM,0.423
same,relative viability,[13]; first compound 0.4 µM,0.367
same,relative viability,[13]; first compound 1.265 µM,0.281
same,relative viability,[13]; first compound 4 µM,0.237
same,relative viability,[14]; first compound 0.04 µM,0.473
same,relative viability,[14]; first compound 0.1265 µM,0.391
same,relative viability,[14]; first compound 0.4 µM,0.274
same,relative viability,[14]; first compound 1.265 µM,0.175
same,relative viability,[14]; first compound 4 µM,0.206
same,relative viability,[15]; first compound 0.04 µM,0.766
same,relative viability,[15]; first compound 0.1265 µM,0.809
same,relative viability,[15]; first compound 0.4 µM,0.677
same,relative viability,[15]; first compound 1.265 µM,0.493
same,relative viability,[15]; first compound 4 µM,0.456
same,relative viability,[16]; first compound 0.04 µM,0.641
same,relative viability,[16]; first compound 0.1265 µM,0.553
same,relative viability,[16]; first compound 0.4 µM,0.305
same,relative viability,[16]; first compound 1.265 µM,0.12
same,relative viability,[16]; first compound 4 µM,0.0858
same,relative viability,[17]; first compound 0.04 µM,0.797
same,relative viability,[17]; first compound 0.1265 µM,0.688
same,relative viability,[17]; first compound 0.4 µM,0.676
same,relative viability,[17]; first compound 1.265 µM,0.477
same,relative viability,[17]; first compound 4 µM,0.289
same,relative viability,[18]; first compound 0.04 µM,0.853
same,relative viability,[18]; first compound 0.1265 µM,1.12
same,relative viability,[18]; first compound 0.4 µM,0.687
same,relative viability,[18]; first compound 1.265 µM,0.55
same,relative viability,[18]; first compound 4 µM,0.465
same,relative viability,[19]; first compound 0.04 µM,0.769
same,relative viability,[19]; first compound 0.1265 µM,0.601
same,relative viability,[19]; first compound 0.4 µM,0.639
same,relative viability,[19]; first compound 1.265 µM,0.474
same,relative viability,[19]; first compound 4 µM,0.398
same,relative viability,[20]; first compound 0.04 µM,0.6
same,relative viability,[20]; first compound 0.1265 µM,0.372
same,relative viability,[20]; first compound 0.4 µM,0.44
same,relative viability,[20]; first compound 1.265 µM,0.156
same,relative viability,[20]; first compound 4 µM,0.106
same,relative viability,[21]; first compound 0.04 µM,0.508
same,relative viability,[21]; first compound 0.4 µM,0.519
same,relative viability,[21]; first compound 1.265 µM,0.299
same,relative viability,[21]; first compound 4 µM,0.203
